# Experiments:
# [1] = tested on: DKK-1 protein; assay: Western blotting of DKK-1 protein in DHT-treated HHFDPC; type: cell-based, human; details: HHFDPC with DHT 100 nM, peptide 500 nM, 5 μM, 50 μM, 24 hours, vs DHT-only negative control, FIG. 5
# Procedure: DKK-1 protein (dickkopf-related protein 1) is a hair loss-related protein known to be highly expressed in individuals with hair loss, especially male pattern hair loss, and its expression is known to be promoted by hormones such as DHT (Dihydrotestosterone). Accordingly, the expression of DKK-1 protein was induced by treating HHFDPC cells with DHT together with the peptide according to the Preparation Example of the present invention, and then the expression level of DKK-1 was measured through Western blotting to determine whether there was an effect of suppressing the expression of DKK-1 protein.
# Specifically, HHFDPC as in [Experiment Example 1-1] was seeded in a 6-well culture plate at 4×10^5 cells/well and then cultured in MSC complete medium (mesenchymal stem cell complete media) for 24 hours. Next, the medium was replaced with serum free MSC complete medium and cultured again for 24 hours. In addition, the HHFDPC was treated with the peptide of SEQ ID NO: 1 prepared in the Preparation Example at concentrations of 500 nM, 5 μM, and 50 μM, respectively, and at this time, DHT, an expression inducer of DKK-1 protein, was simultaneously treated at a concentration of 100 nM and then cultured at 37° C. for 24 hours. […] After washing again with 0.1% PBS-T (0.1% Tween-20 in PBS) three times for 15 minutes each, DKK-1 protein was detected by treatment with ECL solution (GE Healthcare, USA).
# [2] = tested on: c-Myc; assay: RT-PCR of c-Myc expression in HHFDPC; type: cell-based, human; details: peptide 500 nM, 5 μM, 50 μM, 24 hours, vs untreated control, FIG. 4
# Procedure: (§1) Furthermore, in order to determine whether the β-catenin moves to the nucleus and is activated to affect proliferation and differentiation, whether the expression of LEF-1, c-Myc and cyclin D1 (cyclin D1), which act as downstream factors, increases with β-catenin activation was confirmed through RT-PCR. Specifically, in the same manner as the previous Western blotting experiment, HHFDPC cells were cultured, treated with the peptides of the Preparation Example of the present invention at concentrations of 500 nM, 5 μM, and 50 μM, respectively, and cultured at 37° C. for 24 hours. After washing the cells with PBS, RNA was isolated by treating them with 300 μ ? of easy blue (intron, Korea). Then, cDNA was synthesized using a cDNA synthesis kit (enzynomics, Korea) by quantifying it with nano drop, and PCR was performed using primers for LEF-1, c-Myc and cyclin D1 (base sequences of the primer are listed in Table 2 below) and PCR premix (enzynomics, Korea). Electrophoresis was performed on a 1.5% agarose gel, and then the mRNA of LEF-1, c-Myc, c-Myc and cyclin D1 was detected using a band analysis system (Bio-Rad gel image system).
# [3] = tested on: LEF-1; assay: RT-PCR of LEF-1 expression in HHFDPC; type: cell-based, human; details: peptide 500 nM, 5 μM, 50 μM, 24 hours, vs untreated control, FIG. 4
# Procedure: as §1
# [4] = tested on: p-ERK; assay: Western blotting of phosphorylated ERK in HHFDPC; type: cell-based, human; details: peptide 500 nM, 5 μM, 50 μM, 24 hours, vs untreated control, FIG. 2
# Procedure: (§2) First, phosphorylated forms of AKT and ERK, which act as signaling molecules related to the proliferation of HHFDPC, were confirmed through Western blotting. Specifically, HHFDPC as in [Experiment Example 1-1] above was seeded at 4×10^5 cells/well in a 6-well culture plate, cultured in MSC complete medium (mesenchymal stem cell complete media) for 24 hours, and then the medium was replaced with serum free MSC complete medium and cultured for another 24 hours. Then, the HHFDPC was treated with the peptide of SEQ ID NO: 1 prepared in the Preparation Example at concentrations of 500 nM, 5 μM, and 50 μM, respectively, and cultured at 37° C. for 24 hours. As a positive control, minoxidil was treated at a concentration of 1 μM, and as a negative control, HHFDPC without any treatment was used. Then, Western blotting was performed to detect phosphorylated AKT and phosphorylated ERK. After washing with PBS, the cells were treated with 100 μ ? of lysis buffer to destroy cells, thereby obtaining cell lysate. After electrophoresis using a 10% SDS-PAGE gel, it was transferred to a PVDF membrane and blocked using 5% skim milk at room temperature for 30 minutes. […] After washing again with 0.1% PBS-T (0.1% Tween-20 in PBS) three times for 15 minutes each, p-AKT and p-ERK were detected by treatment with ECL solution (GE Healthcare, USA).
# [5] = tested on: human hair follicle dermal papilla cells (HHFDPC); assay: MTT proliferation of dermal papilla cells; type: cell-based; details: peptide 500 nM, 5 μM, 50 μM, 72 hours, vs untreated control, FIG. 1
# Procedure: While culturing human hair follicle dermal papilla cells (HHFDPC), the absorbance was measured after treatment with the peptide of the present invention to confirm whether there was an effect of promoting the proliferation of the HHFDPC dermal papilla cells.
# Specifically, HHFDPC (Sciencell, USA) was seeded at 4×10^3 cells/well in a 96-well culture plate, cultured in MSC complete medium (mesenchymal stem cell complete media, Sciencell, USA) for 24 hours, and then the medium was replaced with serum free MSC complete medium and cultured for another 24 hours. Then, the HHFDPC was treated with the peptide of SEQ ID NO: 1 prepared in the Preparation Example at concentrations of 500 nM, 5 μM, and 50 μM, respectively, and cultured at 37° C. for 72 hours. As a positive control, minoxidil was treated at a concentration of 1 μM, and as a negative control, HHFDPC without any treatment was used. Then, 10 μ ? of 5 mg/mL MTT solution was added and cultured in a 37° C. CO2 incubator for 4 hours to stain the cells. After removing the medium, the cells were treated with 100 μl of DMSO and shaken for 10 minutes, and the number of HHFDPC cells was confirmed by measuring absorbance at a wavelength of 540 nm using a spectrophotometer.
# [6] = tested on: MSX2; assay: RT-PCR of MSX2 expression in HHGMC; type: cell-based, human; details: peptide 500 nM, 5 μM, 50 μM, 72 hours, vs untreated control, FIG. 7
# Procedure: Specifically, HHGMC (human hair germinal matrix cell, Sciencell, USA) was seeded in a 6-well culture plate at 4×10^5 cells/well and then cultured in MSC complete medium (mesenchymal stem cell complete media) for 24 hours. Next, the medium was replaced with serum free MSC complete medium and cultured again for 24 hours. Then, the HHGMC was treated with the peptide of SEQ ID NO: 1 prepared in the Preparation Example at concentrations of 500 nM, 5 μM, and 50 μM, respectively, and cultured at 37° C. for 72 hours. As a positive control, EGF was treated at a concentration of 50 nM, and as a negative control, HHGMC without any treatment was used. After washing with PBS, RNA was isolated by treating with 300 μ ? of easy blue (intron, Korea). Next, cDNA was synthesized using a cDNA synthesis kit (enzynomics, Korea) by quantification using nano drop, and PCR was performed using primers for MSX2 (base sequences of primer are listed in Table 4 below) and PCR premix (enzynomics, Korea). Electrophoresis was performed on a 1.5% agarose gel, and MSX2 mRNA was detected using a band analysis system (Bio-Rad gel image system).
# [7] = tested on: p-AKT; assay: Western blotting of phosphorylated AKT in HHFDPC; type: cell-based, human; details: peptide 500 nM, 5 μM, 50 μM, 24 hours, vs untreated control, FIG. 2
# Procedure: as §2
# [8] = tested on: Keratin 19; assay: RT-PCR of Keratin 19 expression in HHORSC; type: cell-based, human; details: peptide 500 nM, 5 μM, 50 μM, 72 hours, vs untreated control, FIG. 6
# Procedure: (§3) Specifically, HHORSC (human hair outer root sheath cell, Sciencell, USA) was seeded in a 6-well culture plate at 4×10^5 cells/well and then cultured in MSC complete medium (mesenchymal stem cell complete media) for 24 hours. Next, the medium was replaced with serum free MSC complete medium and cultured again for 24 hours. Then, the HHORSC was treated with the peptide of SEQ ID NO: 1 prepared in the Preparation Example at concentrations of 500 nM, 5 μM, and 50 μM, respectively, and cultured at 37° C. for 72 hours. As a positive control, EGF was treated at a concentration of 50 nM, and as a negative control, HHORSC without any treatment was used. After washing with PBS, RNA was isolated by treating with 300 μ ? of easy blue (intron, Korea). Then, cDNA was synthesized using a cDNA synthesis kit (enzynomics, Korea) by quantification using nano drop, and PCR was performed using primers for Ha3-II, Keratin 14, and Keratin 19 (base sequences of primer are listed in Table 3 below) and PCR premix (enzynomics, Korea). Electrophoresis was performed on a 1.5% agarose gel, and the mRNAs of Ha3-II, Keratin 14, and Keratin 19 were detected using a band analysis system (Bio-Rad gel image system).
# [9] = tested on: cyclin D1; assay: RT-PCR of cyclin D1 expression in HHFDPC; type: cell-based, human; details: peptide 500 nM, 5 μM, 50 μM, 24 hours, vs untreated control, FIG. 4
# Procedure: as §1
# [10] = tested on: β-catenin; assay: Western blotting of β-catenin moved to the nucleus in HHFDPC; type: cell-based, human; details: HHFDPC nuclear protein, peptide 500 nM, 5 μM, 50 μM, 24 hours, vs untreated control, FIG. 3
# Procedure: In addition, in addition to p-AKT and p-ERK, in order to confirm the activation of β-catenin, which is known to affect cell proliferation and differentiation, whether β-catenin moved into the nucleus was confirmed through Western blotting. Specifically, the HHFDPC as in [Experiment Example 1-1] was seeded in a 6-well culture plate at an amount of 4×10^5 cells/well, cultured in MSC complete medium (mesenchymal stem cell complete media) for 24 hours. Next, the medium was replaced with serum free MSC complete medium and cultured again for 24 hours. Then, the HHFDPC was treated with the peptide of SEQ ID NO: 1 prepared in the Preparation Example at concentrations of 500 nM, 5 μM, and 50 μM, respectively, and cultured at 37° C. for 24 hours. As a positive control, minoxidil was treated at a concentration of 1 μM, and as a negative control, HHFDPC without any treatment was used. After washing with PBS, proteins in the nucleus were isolated using a nuclear protein extraction kit (Thermo scientific, USA). After electrophoresis using a 10% SDS-PAGE gel, it was transferred to a PVDF membrane and blocked using 5% skim milk at room temperature for 30 minutes. […] After washing again with 0.1% PBS-T (0.1% Tween-20 in PBS) three times for 15 minutes each, β-catenin was detected by treatment with ECL solution (GE Healthcare, USA).
# [11] = tested on: Ha3-II; assay: RT-PCR of Ha3-II expression in HHORSC; type: cell-based, human; details: peptide 500 nM, 5 μM, 50 μM, 72 hours, vs untreated control, FIG. 6
# Procedure: as §3
# [12] = tested on: Keratin 14; assay: RT-PCR of Keratin 14 expression in HHORSC; type: cell-based, human; details: peptide 500 nM, 5 μM, 50 μM, 72 hours, vs untreated control, FIG. 6
# Procedure: as §3
sequence,measurement,setting,value
QHNQIRYFEE [peptide of the present invention],amount of DKK-1 protein,[1],the amount of DKK-1 protein was found to be reduced
same,c-Myc mRNA,[2],the amount of mRNA increased further
same,LEF-1 mRNA,[3],the amount of mRNA increased further
same,phosphorylated ERK (p-ERK),[4],phosphorylation was found to be increased
same,"proliferation of HHFDPC (absorbance at 540 nm, MTT)",[5],proliferation of HHFDPC was promoted depending on the concentration of the treated peptide
same,MSX2 mRNA,[6],the amount of mRNA increased further
same,phosphorylated AKT (p-AKT),[7],phosphorylation was found to be increased
same,Keratin 19 mRNA,[8],the amount of mRNA increased further
same,cyclin D1 mRNA,[9],the amount of mRNA increased further
same,β-catenin moved to the nucleus,[10],migration due to activation of β-catenin increased
same,Ha3-II mRNA,[11],the amount of mRNA increased further
same,Keratin 14 mRNA,[12],the amount of mRNA increased further
